One block for each compound: values may come before it.
Tests used:
Type in all cases: physicochemical
[1] = Solubility studies: 0.1 g marker candidate in 0.9 g solvent, solution stability at 60 C, room temperature and -10 C
Description: Solutions were made from 0.1 grams of marker candidate and 0.9 grams of solvent. The mixtures were warmed briefly to 60° C. to completely dissolve the marker candidate, then the solutions were cooled to room temperature. The solutions were then placed into a −10° C. freezer, and the stability of the solutions was monitored for at least 7 days.
DPGME is dipropylene glycol mono-methyl ether and NMP is N-methylpyrrolidone; AROMATIC 200 and AROMATIC 150 are mixed aromatic solvents available from Exxon Mobil Corp.

[2] = Stability and extractability of marker in xylenes solution against laundering agents, analysed by GC; conditions: 2000 mg/kg in xylenes, room temperature, 8 hours
[3] = Sunlight stability of marker solution, checked by GC
[4] = 75:25 Aromatic 200H: cyclohexanone
[5] = 75:25 Aromatic 200H: o-sec-butylphenol

SOLUBILITY BEHAVIOR −10 C. [1, 4]: sol 7D sol 7D
SOLUBILITY BEHAVIOR −10 C. [1, 5]: sol 7D sol 7D
Compound: CCCCCCCCCCCCOc1c(C(C)(C)C)cc(C(c2ccccc2)(c2ccccc2)c2ccccc2)cc1C(C)(C)C

SOLUBILITY BEHAVIOR −10 C. [1, 4]: xtls 6D xtls 6D
SOLUBILITY BEHAVIOR −10 C. [1, 5]: xtls 6D xtls 6D
Compound: CCCCCCCCCCCCOc1c(C(C)(C)C)cc(C(C)(C)C)cc1C(c1ccccc1)(c1ccccc1)c1ccccc1

Compound: CCCCCCCCCCOc1ccc(C(c2ccccc2)(c2ccccc2)c2ccccc2)cc1C(C)CC (centres unmarked) [DecTsBuPh]
% Change ([2]; 2% Charcoal): −0.76%
% Change ([2]; 5% Bleach): 1.08%
% Change ([2]; 5% H2SO4, 5% by weight): −0.04%
% Change ([2]; 5% NaOH, 5% by weight, GC vs stock solution): 0.10%
% Change ([2]; 50% NaOH, 5% by weight): 0.60%
% Change ([2]; 98% H2SO4, 5% by weight): −1.84%
% Change ([2]; Fuller's Earth): 0.79%
% Change ([2]; Iron Specks (2% metal specs wt/wt)): 1.76%
% Change ([3]; Apr. 5, 2012): −1.90%
% Change ([3]; Apr. 13, 2012): 2.40%
% Change ([3]; Apr. 23, 2012): 0.90%
% Change ([3]; May 8, 2012): −1.40%
% Change ([3]; May 15, 2012): 1.80%
[…] −10 C. ([1]; Aromatic 200): sol 33D
[…] −10 C. ([1]; DPGDME): sol 33D

SOLUBILITY BEHAVIOR −10 C. [1, 4]: sol 7D
SOLUBILITY BEHAVIOR −10 C. [1, 5]: xtls 3D
Compound: CCCCCCCCCCCCOc1ccc(C(c2ccccc2)(c2ccccc2)c2ccccc2)cc1C(C)C

SOLUBILITY BEHAVIOR −10 C. [1, 4]: sol 7D sol 7D
SOLUBILITY BEHAVIOR −10 C. [1, 5]: sol 7D sol 7D
Compound: CCCCCCCCCCCCOc1ccc(C(c2ccccc2)(c2ccccc2)c2ccccc2)cc1C(C)(C)C

SOLUBILITY BEHAVIOR −10 C. [1, 4]: sol 7D sol 7D
SOLUBILITY BEHAVIOR −10 C. [1, 5]: sol 7D sol 7D
Compound: CCCCCCCCCCCCOc1c(C(C)CC)cc(C(c2ccccc2)(c2ccccc2)c2ccccc2)cc1C(C)CC (centres unmarked)

SOLUBILITY BEHAVIOR −10 C. [1, 4]: xtls 4D
Compound: CCCCCCCCCCCCOc1c(C(C)C)cc(C(c2ccccc2)(c2ccccc2)c2ccccc2)cc1C(C)C

— patent US9422493B2, “Tritylated alkyl aryl ethers” (Rohm and Haas Company, priority 2012, dated 2016)
